The source of these data is PMC4743925, “Targeting an Essential GTPase Obg for the Development of Broad-Spectrum Antibiotics” (PLoS ONE, 2016).

Experiment [1] addresses T1, ObgKP (Klebsiella pneumoniae, UniProt A6TEK2).
T1 construct: gene obg; residues 1-392, N-terminal 6xHis tag and TEV site (modified pCDF-Duet1, pKV1414), expressed in E. coli BL21(DE3); tag not reported cut
Put plainly: mant-nucleotide fluorescence increase. As to conditions: 2 μM protein, labelled compound. Format: binding.

Experiment [2] concerns the target T2, ObgGC (Neisseria gonorrhoeae, UniProt Q5F5D9).
T2 construct: gene obg; full-length with C-terminal 6xHis tag, expressed in E. coli BL21(DE3), IMAC and size exclusion; tag not reported cut
The experiment in a line: mant-nucleotide fluorescence increase. The settings on record: 2 μM protein, labelled compound. It counts as binding.

[3] abbreviates: 0.3 μM mant-GTP, 5 mM MgCl2, 37 °C.

T2 sequence (Q5F5D9 whole entry): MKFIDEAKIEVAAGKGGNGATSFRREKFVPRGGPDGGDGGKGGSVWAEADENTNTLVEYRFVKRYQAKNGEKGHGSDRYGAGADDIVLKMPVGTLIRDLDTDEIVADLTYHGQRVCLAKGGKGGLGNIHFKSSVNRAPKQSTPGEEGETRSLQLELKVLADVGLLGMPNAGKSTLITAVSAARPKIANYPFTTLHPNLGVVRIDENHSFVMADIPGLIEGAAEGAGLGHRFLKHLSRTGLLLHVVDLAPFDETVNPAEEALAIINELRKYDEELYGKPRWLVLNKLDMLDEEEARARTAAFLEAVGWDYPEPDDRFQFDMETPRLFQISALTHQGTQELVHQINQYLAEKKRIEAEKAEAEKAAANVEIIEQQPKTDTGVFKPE
T1 sequence (A6TEK2 whole entry, the tested form may be a part): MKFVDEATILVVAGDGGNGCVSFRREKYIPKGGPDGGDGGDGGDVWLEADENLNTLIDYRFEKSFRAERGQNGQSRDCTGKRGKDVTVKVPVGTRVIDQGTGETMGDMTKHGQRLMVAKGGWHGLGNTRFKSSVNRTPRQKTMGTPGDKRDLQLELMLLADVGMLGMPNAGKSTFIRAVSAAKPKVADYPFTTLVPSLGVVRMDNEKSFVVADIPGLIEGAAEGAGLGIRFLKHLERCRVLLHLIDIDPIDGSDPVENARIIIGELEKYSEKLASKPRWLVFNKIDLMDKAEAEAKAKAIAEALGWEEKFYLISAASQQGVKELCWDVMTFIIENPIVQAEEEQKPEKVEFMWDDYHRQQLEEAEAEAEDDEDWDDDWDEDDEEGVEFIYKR

For `CNc1ccccc1C(=O)O[C@H]1[C@@H](O)[C@H](n2cnc3c(=O)[nH]c(N)nc32)O[C@@H]1COP(=O)(O)OP(=O)(O)O` [mant-GDP], the “fold increase in RFU” value in experiment [1] (0.3 μM mant-GDP, 37 °C) is listed as ~ 1.3 fold. The “increase in RFU” value in experiment [2] (0.3 μM mant-GDP, no MgCl2, 37 °C) is “Assessment of mant-nucleotides binding by wild type (ObgGC) and mutated (*ObgGC)”.
For the compound `CNc1ccccc1C(=O)O[C@H]1[C@@H](O)[C@H](n2cnc3c(=O)[nH]c(N)nc32)O[C@@H]1COP(=O)(O)OP(=O)(O)OP(=O)(O)O` [mant-GTP], the “fold increase in RFU” value in experiment [1] (setting [3]) is on record as ~ 1.8 fold. The “increase in RFU” value in experiment [2] (setting [3]) was “Assessment of mant-nucleotides binding by wild type (ObgGC) and mutated (*ObgGC)”.
